Reference: patent US20230173135A1, “PROCESS TO COAT A MEDICAL DEVICE SURFACE WITH PEPTIDE-BASED NANOPARTICLES” (priority 2020, published 2023)

What was measured:
[1] = test system: E.coli; assay type: cell-based
Protocol: (§1) Bacterial resistance assay. Commercial available Acticoat® dressing from Smith & Nephew was used to study the development of bacterial resistance against Ag. Acticoat® (1 cm^2 area) was placed in water (1 mL) and kept at room temperature for 24 h in order to promote leaching of Ag ions. ICP-MS analysis of leached solution was done to quantify the amount of Ag ions. The leached Acticoat® solution (Ag^+,0.06 ug/mL; sub-minimum inhibitory concentration, sub-MIC) was used to incubate with E.coli or S.aureus suspensions (10^5 CFU/mL) for 20 h in 10% human serum (HS; v/v in PBS). Then, for antimicrobial test, 10^5 CFU/mL of bacteria from passage 1 were incubated with 0.1 ug/mL (minimum inhibitory concentration, MIC) of Acticoat® solution in 10% human serum (HS) for 6 h followed by serial dilution and plating. Plates were incubated at 37° C. for 24 h. The visible bacteria grown on plates were counted. […]
(§2) Next, the inventors evaluated whether LL37NPs induced bacterial resistance (FIG. 5). […] Acticoat® dressing was incubated in PBS for 1, 3 and 5 days followed by the quantification of silver ions using ICP-MS analysis (FIG. 11C). […]
(§3) (A) Schematic diagram showing experimental procedures being used for bacterial resistance assay. […] ICP-MS analysis was performed to quantify the amount of Ag. […]

[2] = test system: S.aureus; assay type: cell-based
Protocol: as §1, §2, §3

[3] = test system: Human keratinocyte cell line (HaCaT); assay: Biocompatibility: keratinocytes cultured on films, ATP (CellTiter-Glo) assay; assay type: cell-based; conditions: 4 and 24 h; cells on films or with soluble peptide (20 µg/mL)
Protocol: Cell Culture. Human dermal fibroblast cells (NDHF) (Lonza) were cultured with Dulbecco’s modified eagle’s medium (DMEM) (Sigma) supplemented with 10% (v/v) of fetal bovine serum (Gibco, Grand Island, NY, USA) and 1% (v/v) penicillin/streptomycin (Lonza). NDHF cells under passage number ten were used in all experiments. Human keratinocyte cell line (HaCaT cell line, CLS, Eppelheim, Germany) was cultured as recommended by the vendor. Briefly, HaCaT cells were cultivated using DMEM supplemented with 1% (v/v) penicillin and streptomycin (Invitrogen) and 10% (v/v) fetal bovine serum (FBS, Invitrogen) until 90% of confluence. For passage, HaCat cells were initially trypsinized and then scraped. The cells were sub-cultured at a ratio of 1:3 until achieving the number of cells required for the experiment.
Biocompatibility study. Keratinocytes (2×10^4 cells) were cultured on top of PU-Adhesive-LL37NP, PU-Adhesive or PU films and cultured for 4 and 24 h. […] Cell viability was measured using ATP assay. […]
In vitro cytotoxicity of PU-adhesive-LL37NP films. […] To evaluate the cytotoxicity of films, keratinocytes were cultured on the top of PU-adhesive-LL37NP, PU-adhesive and PU films for 4 and 24 h and then cell viability was evaluated by an ATP assay (FIG. 12A). […]

[4] = test system: P.aeruginosa

Row | SMILES | MIC ([1]; free peptide) | MIC ([2]; free peptide) | keratinocyte metabolism / cytotoxicity (ATP production) [3] | MIC [4] | time to induce resistance ([1]; serial passages at sub-MIC) [days] | time to induce resistance ([2]; serial passages at sub-MIC) [days]
1 | CC[C@H](C)[C@H](NC(=O)[C@H](CCCCN)NC(=O)[C@H](CCC(=O)O)NC(=O)[C@H](CCCCN)NC(=O)[C@H](CO)NC(=O)[C@H](CCCCN)NC(=O)[C@H](CCCNC(=N)N)NC(=O)[C@H](Cc1ccccc1)NC(=O)[C@H](Cc1ccccc1)NC(=O)[C@H](CC(=O)O)NC(=O)CNC(=O)[C@H](CC(C)C)NC(=O)[C@@H](N)CC(C)C)C(=O)NCC(=O)N[C@@H](CCCCN)C(=O)N[C@@H](CCC(=O)O)C(=O)N[C@@H](Cc1ccccc1)C(=O)N[C@@H](CCCCN)C(=O)N[C@@H](CCCNC(=N)N)C(=O)N[C@H](C(=O)N[C@H](C(=O)N[C@@H](CCC(N)=O)C(=O)N[C@@H](CCCNC(=N)N)C(=O)N[C@H](C(=O)N[C@@H](CCCCN)C(=O)N[C@@H](CC(=O)O)C(=O)N[C@@H](Cc1ccccc1)C(=O)N[C@@H](CC(C)C)C(=O)N[C@@H](CCCNC(=N)N)C(=O)N[C@@H](CC(N)=O)C(=O)N[C@@H](CC(C)C)C(=O)N[C@H](C(=O)N1CCC[C@H]1C(=O)N[C@@H](CCCNC(=N)N)C(=O)N[C@H](C(=O)N[C@@H](CCC(=O)O)C(=O)N[C@@H](CO)C(=O)N[C@@H](CS)C(=O)O)[C@@H](C)O)C(C)C)[C@@H](C)CC)C(C)C)[C@@H](C)CC [LL37 peptide] | up to 15 µg/mL | up to 15 µg/mL | No statistic difference in keratinocyte metabolism | up to 15 µg/mL | – | –
2 | O=C(N[C@H](CO)[C@H](O)c1ccc([N+](=O)[O-])cc1)C(Cl)Cl [chloramphenicol] | – | – | – | – | ≤ 3 | ≤ 3
